Measured values reported in BigSolDB 2.1.

O=C(O)c1cc(C(=O)O)cc(C(=O)O)c1
Settings	solubility (mole fraction)
in ethanol, 302.89 K	0.0207
in ethanol, 309.85 K	0.0228
in ethanol, 312.83 K	0.0237
in ethanol, 319.06 K	0.0257
in ethanol, 324.5 K	0.0277
in ethylene glycol, 305.44 K	0.00826
in ethylene glycol, 310.56 K	0.00951
in ethylene glycol, 315.85 K	0.0112
in ethylene glycol, 321.33 K	0.0131
in ethylene glycol, 326.03 K	0.0147
in ethylene glycol, 331.84 K	0.0178
in isobutanol, 306 K	0.0078
in isobutanol, 310.65 K	0.0086
in isobutanol, 314.94 K	0.00926
in isobutanol, 319.87 K	0.0104
in isobutanol, 324.75 K	0.0117
in isobutanol, 330.58 K	0.0132
in isopropanol, 305.77 K	0.00706
in isopropanol, 311.02 K	0.00798
in isopropanol, 315.67 K	0.00869
in isopropanol, 320.61 K	0.00949
in isopropanol, 324.58 K	0.0104
in isopropanol, 330.39 K	0.0117
in methanol, 298.21 K	0.012
in methanol, 304.67 K	0.0138
in methanol, 308.78 K	0.0151
in methanol, 313.97 K	0.0169
in water, 301.05 K	0.00015
in water, 305.47 K	0.00019
in water, 309.8 K	0.00025
in water, 315.22 K	0.00033
in water, 320.56 K	0.00044
in water, 325.11 K	0.00055
in water, 329.42 K	0.00069
